The source of these data is patent US11447485B2, “Class of bifunctional compounds with quanternary ammonium salt structure” (Beijing Showby Pharmaceutical Co., Ltd., priority 2016, dated 2022).

A word on the EC50: it is the concentration that produces a half-maximal response.

Like-named read-outs stand apart in the source and are kept apart here.

Assay [1] concerns the target human recombinant M3 receptor (Homo sapiens, UniProt P20309). Nature of the assay: biochemical. In kind it is binding. The conditions noted are these: for M1/M3 / M2/M3: Mx/My = Ki(y)/Ki(x).
The target in assay [2] is human recombinant M2 receptor (Homo sapiens, UniProt P08172). Nature of the assay: biochemical. In kind it is binding.
For assay [3], the target named is T1, human recombinant β2 adrenoceptor (Homo sapiens, UniProt P07550).
T1 construct: expressed in transfected cells
Nature of the assay: cell-based. Conditions: for EC50: cAMP accumulation. Format: cell-based. For orientation: Cyclic AMP is a second messenger, typically raised through Gs and lowered through Gi signalling.

The target in assay [4] is human recombinant M1 receptor (Homo sapiens, UniProt P11229). Nature of the assay: biochemical. Format: binding. Conditions: for M1/M2: Mx/My = Ki(y)/Ki(x).
Assay [5] has as its target T2, human recombinant β1 adrenoceptor (Homo sapiens, UniProt P08588).
T2 construct: expressed in transfected cells
Nature of the assay: cAMP accumulation, human recombinant β1 adrenoceptor. In kind it is cell-based. The procedure: In order to measure the activity and selectivity of agonists to human β1 and β2 adrenoceptors, the cAMP accumulation of expressed receptors in each recombinant cell line was measured. cAMP was determined by homology radioimmunoassay, that is, cells were washed with PSB buffer solution and suspended in the buffer solution at room temperature to grow to 30000-40000 cells per well. The test compound was diluted with PSB buffer solution containing 0.1% BSA and tested at 11 gradient concentrations ranging from 100 uM to 0.1 pM. For the analysis of β1-adrenoceptor, 10 nM of ICI118551 was added to block the expression of β2-adrenoceptor in HEK293 cells. After the compound was added to the suspended cells, the scintillation plate was incubated at 37° C. for 10 minutes, the reaction was terminated with ice-cold detection buffer solution, and its radioactivity was measured after storage at 4° C. overnight.
The agonistic activity (pEC50 value) was analyzed by regression using S-type dose response model of software package (GraphPad Software, San Diego, Calif.). Selectivity was calculated from the ratio of measured cAMP of β1 and β2 adrenoceptors, which was expressed as sel. β1/β2=(EC50 (β1)/EC50 (β2)).

Assay [6] deals with tracheal smooth muscle of guinea pig. Nature of the assay: Relaxation of CCh-induced constriction of isolated guinea pig tracheal smooth muscle (Experimental Example 1). Conditions: in vitro; for Onset time (min) ± SD / Time for eliminating inhibition effect (min): CCh 3 × 10^−6 mol/L; for EC50: constriction induced by CCh 3 × 10^−6 mol/L, read-out: EC50 (μM) ± SD.
The next assay has as its system moderate and severe COPD. The conditions noted are these: phase II clinical study; cited from earlier work.
Where [7] appears, read: 3H-QNB […], 25° C., 5 h, read-out: hM3Ki.
Setting [8] is: 3H-QNB 1.81 nmol/L, 25° C., 5 h, read-out: hM2Ki.
Setting [9] is: 3H-QNB […], 25° C., 5 h, read-out: hM1Ki.
[10] abbreviates: cAMP accumulation, 10 nM ICI118551 added, HEK293 cells, read-out: EC50 (β1).

Sequence of human recombinant M3 receptor (P20309 whole entry): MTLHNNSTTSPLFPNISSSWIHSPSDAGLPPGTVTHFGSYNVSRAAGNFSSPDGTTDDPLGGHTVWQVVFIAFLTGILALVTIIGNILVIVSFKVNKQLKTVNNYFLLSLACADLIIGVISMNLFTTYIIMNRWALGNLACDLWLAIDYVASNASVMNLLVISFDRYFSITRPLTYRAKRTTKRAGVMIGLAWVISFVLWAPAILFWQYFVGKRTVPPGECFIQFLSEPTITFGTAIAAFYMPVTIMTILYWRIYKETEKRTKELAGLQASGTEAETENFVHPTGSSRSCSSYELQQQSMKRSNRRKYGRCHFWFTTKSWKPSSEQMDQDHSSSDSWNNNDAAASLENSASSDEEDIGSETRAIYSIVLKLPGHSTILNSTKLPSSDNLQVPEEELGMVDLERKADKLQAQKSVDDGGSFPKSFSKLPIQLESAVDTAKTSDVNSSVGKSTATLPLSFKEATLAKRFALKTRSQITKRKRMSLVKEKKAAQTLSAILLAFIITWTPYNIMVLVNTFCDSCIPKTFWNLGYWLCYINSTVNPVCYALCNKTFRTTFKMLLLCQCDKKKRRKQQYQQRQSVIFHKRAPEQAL
T2 sequence (P08588 whole entry): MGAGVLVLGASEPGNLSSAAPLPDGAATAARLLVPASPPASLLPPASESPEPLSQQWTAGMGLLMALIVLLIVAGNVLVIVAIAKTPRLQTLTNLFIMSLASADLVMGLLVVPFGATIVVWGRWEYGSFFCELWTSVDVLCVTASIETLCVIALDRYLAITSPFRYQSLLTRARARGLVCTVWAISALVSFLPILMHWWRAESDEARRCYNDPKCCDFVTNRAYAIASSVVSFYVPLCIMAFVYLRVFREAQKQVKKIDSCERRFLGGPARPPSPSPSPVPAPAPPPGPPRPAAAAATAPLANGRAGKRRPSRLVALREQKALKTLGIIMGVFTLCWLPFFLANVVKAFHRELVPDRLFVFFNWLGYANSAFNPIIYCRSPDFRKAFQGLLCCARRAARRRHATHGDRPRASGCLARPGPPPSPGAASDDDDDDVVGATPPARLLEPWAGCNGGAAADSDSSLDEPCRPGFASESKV
Sequence of human recombinant M1 receptor (P11229 whole entry): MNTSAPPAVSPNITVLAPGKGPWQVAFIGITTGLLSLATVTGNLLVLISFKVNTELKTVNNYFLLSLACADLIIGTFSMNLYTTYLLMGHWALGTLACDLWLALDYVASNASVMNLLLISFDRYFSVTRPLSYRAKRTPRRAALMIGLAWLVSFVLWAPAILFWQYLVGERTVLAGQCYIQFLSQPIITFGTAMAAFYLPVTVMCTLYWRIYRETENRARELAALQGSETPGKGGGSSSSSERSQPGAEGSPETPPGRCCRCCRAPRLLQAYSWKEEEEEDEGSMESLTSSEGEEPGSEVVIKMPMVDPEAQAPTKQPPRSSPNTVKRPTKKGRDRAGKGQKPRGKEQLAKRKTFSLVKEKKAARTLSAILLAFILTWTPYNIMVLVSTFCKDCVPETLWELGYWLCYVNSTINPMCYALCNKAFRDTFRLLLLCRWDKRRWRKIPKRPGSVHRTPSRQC
Sequence of human recombinant M2 receptor (P08172 whole entry): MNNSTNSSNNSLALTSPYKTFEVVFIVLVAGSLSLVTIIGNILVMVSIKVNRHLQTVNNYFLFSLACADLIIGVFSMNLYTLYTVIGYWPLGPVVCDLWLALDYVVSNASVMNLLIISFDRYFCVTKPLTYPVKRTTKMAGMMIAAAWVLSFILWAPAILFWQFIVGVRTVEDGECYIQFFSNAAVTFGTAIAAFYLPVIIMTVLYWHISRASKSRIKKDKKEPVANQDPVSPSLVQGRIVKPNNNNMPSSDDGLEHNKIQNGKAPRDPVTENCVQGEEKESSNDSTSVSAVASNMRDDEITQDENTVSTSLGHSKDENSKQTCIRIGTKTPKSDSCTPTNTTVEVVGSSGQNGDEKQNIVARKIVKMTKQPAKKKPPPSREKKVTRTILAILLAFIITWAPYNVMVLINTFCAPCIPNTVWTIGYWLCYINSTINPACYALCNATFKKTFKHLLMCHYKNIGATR

For the compound `OCc1cc([C@@H](O)CNCCC[N+]23CCC(CC2)[C@@H](OC[C@@](O)(c2ccccc2)C2CCCC2)C3)ccc1O` [Compound 1, (R)-(−)-3-[(R)-2-hydroxy-2-cyclopentyl-2-phenyl]ethoxy-1-{3-[(R)-2-(3-hydroxymethyl-4-hydroxy)phenyl-2-hydroxyethylamino]propyl}-1-azabicyclo[2,2,2]octylonium bromide], in assay [1], the Ki was determined as 0.561 ± 0.22 nM, the M1/M3 was 0.7653 and the M2/M3 is listed as 0.5795. For the same compound, the Ki in assay [2] was 0.968 ± 0.15 nM. Besides, in assay [3], the “sel (β1/β2)” value was 15.4 and the concentration for a half-maximal effect (EC50) worked out at 12.8 ± 4.2 nM. Further, in assay [4], the Ki was 0.733 ± 0.32 nM and the M1/M2 is recorded as 1.3206. In addition, in assay [5], the EC50 is 197 ± 87 nM. Moreover, in assay [6], the “Onset time (min) ± SD” value is reported as 6.82 ± 0.30 min and the “Time for eliminating inhibition effect (min)” value is reported as “more than 300 min”. Moreover, the EC50 in assay [6] (Cavia porcellus) came to 0.767 ± 0.18 µM.

As for `OCc1cc([C@@H](O)CNCCCC[N+]23CCC(CC2)[C@@H](OC[C@@](O)(c2ccccc2)C2CCCC2)C3)ccc1O` [Compound 3, (R)-(−)-3-[(R)-2-hydroxy-2-cyclopentyl-2-phenyl]ethoxy-1-{4-[(R)-2-(3-hydroxymethyl-4-hydroxy)phenyl-2-hydroxyethylamino]butyl}-1-azabicyclo[2,2,2]octylonium bromide], in assay [1], the Ki was 0.451 ± 0.18 nM, the M1/M3 was determined as 0.5880 and the M2/M3 stood at 0.4808. For the same compound, in assay [2], the Ki was 0.938 ± 0.4 nM. Further, in assay [3], the “sel (β1/β2)” value is 15.6 and the EC50 worked out at 10.3 ± 2.4 nM. Also, in assay [4], the Ki came out at 0.767 ± 0.16 nM and the M1/M2 was found to be 1.2229. Further, the EC50 in assay [5] was found to be 160 ± 72 nM. In addition, in assay [6], the “Onset time (min) ± SD” value came out at 5.38 ± 0.68 min and the “Time for eliminating inhibition effect (min)” value was “more than 300 min”. Besides, the concentration giving a half-maximal response (EC50) in assay [6] (Cavia porcellus) was determined as 0.355 ± 0.1 µM.

As to `O=CNc1cc([C@@H](O)CNCc2c(Cl)cc(OCCC[N+]34CCC(CC3)[C@@H](OC[C@](O)(c3ccccc3)C3CCCC3)C4)cc2Cl)ccc1O.[Br-]` [Compound 59, (R)-(−)-3-[(R)-2-hydroxy-2-cyclopentyl-2-phenyl]ethoxy-1-{3-[(3,5-dichloro-4-(1-{(R)-[2-hydroxy-2-(3-formamido-4-hydroxy)phenyl]ethylamino}methyl)phenoxy)propyl}-1-azabicyclo[2,2,2]octylonium bromide], the Ki in assay [1] (setting [7]) amounted to 0.131 ± 0.022 nM; in assay [2] (setting [8]) it was 2 ± 0.89 nM; in assay [4] (setting [9]), 0.283 ± 0.018 nM. The half-maximal effective concentration (EC50) in assay [3] amounted to 0.32 ± 0.12 nM; in assay [5] (setting [10]) it was 83 ± 31 nM; in assay [6] it was 0.0165 ± 0.0075 µM.

Consider `O=CNc1cc([C@@H](O)CNCc2c(Cl)cc(OCCC[N+]34CCC(CC3)[C@@H](OC[C@](O)(c3ccccc3)C3CCCC3)C4)cc2Cl)ccc1O.[Br-]` [Compound 59], for which, in assay [1], the M1/M3 was found to be 0.4629 and the M2/M3 worked out at 0.0656. Besides, the “sel (β1/β2)” value in assay [3] was found to be 213.4. For the same compound, the M1/M2 in assay [4] came to 7.0601. For the same compound, in assay [6], the “Onset time (min) ± SD” value is recorded as 6.53 ± 0.66 min and the “Time for eliminating inhibition effect (min)” value is “more than 300 min”.

In the case of `COc1cc(NC(=O)CCN2CCC(OC(=O)Nc3ccccc3-c3ccccc3)CC2)c(Cl)cc1CNC[C@H](O)c1ccc(O)c2[nH]c(=O)ccc12` [TD5959], in the assay with moderate and severe COPD, the “effect on moderate and severe COPD” value is “good effect on moderate and severe COPD”.

Turning to “(R)-(−)-3-[(R)-2-hydroxy-2-cyclopentyl-2-phenyl]ethoxy-1-{3-[(4-(3-methyl-1-{(R)-[2-hydroxy-2-(6-hydroxy-2H-1,4-benzoxazin-3(4H)-one-8-yl)]ethylamino}ethylidene)phenoxy]propyl}-1-azabicyclo[2,2,2]octylonium bromide [Compound 63]”, the Ki in assay [1] (setting [7]) worked out at 0.0198 ± 0.012 nM; in assay [2] (setting [8]) it was 0.323 ± 0.17 nM; in assay [4] (setting [9]), 0.0493 ± 0.021 nM. In addition, the “sel (β1/β2)” value in assay [3] was found to be 80.8. Also, the EC50 in assay [5] (setting [10]) turned out to be 17 ± 5.8 nM; in assay [6] it was 0.0155 ± 0.0078 µM. The “Onset time (min) ± SD” value in assay [6] turned out to be 6.19 ± 0.12 min. Besides, in assay [6], the “Time for eliminating inhibition effect (min)” value is on record as “more than 300 min”.
